From ChEMBL document CHEMBL3352722, “Calcitonin gene-related peptide receptor antagonists: new therapeutic agents for migraine” (J Med Chem, 2014) come the findings set out here.

Each structure is given as a SMILES string. pIC50, pKi: −log10 of the molar value. A value given as a limit tells only on which side of the number the result lay.

The species entered for test [1] is Homo sapiens. The experiment in a line: Antimigraine activity in migraine patient assessed as pain freedom incidence at 100 mg after 2 hrs (reference value: 15.3%). Format: functional.
Test [2] is filed under the species Homo sapiens. Briefly: Antimigraine activity in migraine patient assessed as pain relief incidence at 100 mg after 2 hrs (reference value: 51.2%). It is filed as functional.
The species named for test [3] is Homo sapiens. The experiment in a line: Antimigraine activity in migraine patient assessed as pain relief incidence at 40 mg after 2 hrs (reference value: 18.6%). It is filed as functional.
Test [4] is filed under the species Homo sapiens. Briefly: Antimigraine activity in migraine patient assessed as pain freedom incidence at 40 mg after 2 hrs (reference value: 8.6%). It is filed as functional.
Test [5] has as its target Calcitonin gene-related peptide type 1 receptor (Homo sapiens, UniProt O60894+Q16602). Briefly: Antagonist activity against human CGRP receptor.
The test system of test [6] is Homo sapiens. The experiment in a line: In vivo receptor occupancy at CGRP receptor in human brain at 1120 mg using […]-labeled compound. It is filed as functional.
The test system of test [7] is Homo sapiens. The experiment in a line: In vivo receptor occupancy at CGRP receptor in human brain at 140 mg using […]-labeled compound. Format: functional.
Test [8] is filed under the species Homo sapiens. The experiment in a line: Antimigraine activity in migraine patient assessed as pain relief incidence at 400 mg after 2 hrs (reference value: 18.6%). Format: functional.
The species entered for test [9] is Homo sapiens. Briefly: Antimigraine activity in migraine patient assessed as pain freedom incidence at 400 mg after 2 hrs (reference value: 8.6%). Format: functional.
The species entered for test [10] is Homo sapiens. The experiment in a line: Antimigraine activity in migraine patient assessed as response rate for pain freedom at 400 mg after 2 hrs. Format: functional.
The species named for test [11] is Homo sapiens. The experiment in a line: Antimigraine activity in migraine patient assessed as response rate for pain freedom at 200 mg after 2 hrs. Format: functional.
For test [12], the species on record is Homo sapiens. The experiment in a line: Antimigraine activity in migraine patient assessed as response rate for pain freedom at 50 mg after 2 hrs. It is filed as functional.
Test [13] is filed under the species Homo sapiens. The experiment in a line: Antimigraine activity in migraine patient assessed as response rate for pain freedom at 50 to 400 mg after 2 hrs. It is filed as functional.
The species named for test [14] is Homo sapiens. Briefly: Antimigraine activity in migraine patient assessed as pain relief incidence at 200 mg after 2 hrs (reference value: 18.6%). Format: functional.
For test [15], the species on record is Homo sapiens. Briefly: Antimigraine activity in migraine patient assessed as pain freedom incidence at 200 mg after 2 hrs (reference value: 8.6%). Format: functional.

Chain of Calcitonin gene-related peptide type 1 receptor (Q16602 whole entry, one chain of several): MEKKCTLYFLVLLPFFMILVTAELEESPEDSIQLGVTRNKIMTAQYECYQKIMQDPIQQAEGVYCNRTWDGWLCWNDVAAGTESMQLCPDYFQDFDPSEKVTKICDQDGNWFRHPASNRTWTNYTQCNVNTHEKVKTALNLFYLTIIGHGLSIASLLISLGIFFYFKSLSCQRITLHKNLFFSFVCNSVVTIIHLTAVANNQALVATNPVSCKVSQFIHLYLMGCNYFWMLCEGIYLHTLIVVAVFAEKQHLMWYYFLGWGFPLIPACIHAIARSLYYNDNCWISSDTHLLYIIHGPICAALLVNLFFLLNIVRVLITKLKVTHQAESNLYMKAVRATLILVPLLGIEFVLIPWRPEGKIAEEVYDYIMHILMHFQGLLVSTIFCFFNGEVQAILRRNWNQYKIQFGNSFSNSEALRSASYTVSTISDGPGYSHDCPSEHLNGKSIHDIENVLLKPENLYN

`CNS(=O)(=O)Cc1ccc2[nH]cc(CCN(C)C)c2c1`: the Activity in the test filed under Homo sapiens [1] worked out at 35%; in the test filed under Homo sapiens [2] it was 72%.
Regarding `CN1CCC[C@@H]1Cc1c[nH]c2ccc(CCS(=O)(=O)c3ccccc3)cc12`, the Activity was determined as 56.5% in the test listed under Homo sapiens [3] and 34.8% in the test listed under Homo sapiens [4].
For the compound `NCCCC[C@H](NC(=O)[C@@H](Cc1cc(Br)c(O)c(Br)c1)NC(=O)CCCc1ccccc1)C(=O)NCCc1ccccc1`, in [5], the negative-log IC50 (pIC50) was 4.77.
Turning to `NCCCC[C@H](NC(=O)[C@@H](Cc1cc(Br)c(O)c(Br)c1)NC(=O)N1CCC(n2c(=O)oc3ccccc32)CC1)C(=O)N1CCN(c2ccncc2)CC1`, in test [5], the pIC50 is 7.36.
For the compound `C[C@@]1(c2cc(F)cc(F)c2)CN([11CH3])C2(CCCC2)C(=O)N1CC(=O)Nc1ccc2c(c1)C[C@@]1(C2)C(=O)Nc2ncccc21`, the Occ in the test on Homo sapiens [6] is 43%; with Homo sapiens [7] it was “<=10%”.
On to `Cc1cc(C[C@@H](OC(=O)N2CCC(N3CCc4ccccc4NC3=O)CC2)C(=O)N2CCC(N3CCOCC3)CC2)cc(C)c1O` [BI-44370], for which the Activity in the test filed under Homo sapiens [8] is 56.2%; in the test filed under Homo sapiens [9], 27.4%; in the test listed under Homo sapiens [10], 27.4%; in the test filed under Homo sapiens [11] it was 21.5%; in the test listed under Homo sapiens [12], 7.8%; in the test listed under Homo sapiens [13] it was 34.8%. Besides, the Activity in the test listed under Homo sapiens [14] is listed as 50.8%; in the test filed under Homo sapiens [15], 21.5%. Besides, the pKi in [5] was 9.52.

What is called pIC50 is the IC50 on a negative log10 scale, so that one unit is a factor of ten. As a reminder, the pKi is −log10 of the Ki, conventionally taken in molar units.
